Test results published in patent US11771662B2, “Analgesic formulation for control of pain in dogs” (Kansas State University Research Foundation, priority 2017, dated 2023).
Values joined by “and” are separate entries in the source; they are usually repeats but may differ in a detail not shown here. Identical values can stand only once.

Assays:
[1] = Plasma methadone concentrations by liquid chromatography/triple quadrupole mass spectrometry (Example I); settings: for concentration at 0.333 h / concentration at 0.667 h / concentration at 1 h / concentration at 2 h / concentration at 4 h / concentration at 0 h / concentration at 6 h / concentration at 8 h / concentration at 12 h / concentration at 24 h: dog, in vivo
[2] = Plasma methadone, naltrexone and naltrexone metabolites, multiple oral doses (Example III); format: in vivo, dog; settings: oral methadone/fluconazole/naltrexone formulation, both groups; throughout dosing and at least 12 hours after the last dose
From the text: Twelve healthy Beagle dogs were divided into two groups of 6 each in a parallel study design. […] Group 1 simulated a patient dropped off the night before surgery, while Group 2 simulated a patient dropped off in the morning for same day early afternoon surgery. Rectal temperature was monitored as a marker of central opioid effects throughout the study and von Frey thresholds were obtained to assess the antinociceptive effects.

[3] = test system: dogs undergoing ovariohysterectomy; test: Ease of IV catheter placement in ovariohysterectomy clinical trial (Example IV); settings: 0.5 mg/kg SC q 4 h; with acepromazine 0.05 mg/kg SC

## CCC(=O)C(CC(C)N(C)C)(c1ccccc1)c1ccccc1 (racemic) [methadone]
[1]; 1 mg/kg, Mean plasma methadone concentration, methadone alone 1 mg/kg PO, 0.333 hr, 6 dogs
  concentration at 0.333 h: 0.8 ng/mL
[1]; 1 mg/kg, Mean plasma methadone concentration, methadone alone 1 mg/kg PO, 0.667 hr, 6 dogs
  concentration at 0.667 h: 1.3 ng/mL
[1]; 1 mg/kg, Mean plasma methadone concentration, methadone alone 1 mg/kg PO, 1 hr, 6 dogs
  concentration at 1 h: 1.2 ng/mL
[1]; 1 mg/kg, Mean plasma methadone concentration, methadone alone 1 mg/kg PO, 2 hr, 6 dogs
  concentration at 2 h: 0.7 ng/mL
[1]; 1 mg/kg, Mean plasma methadone concentration, methadone alone 1 mg/kg PO, 4 hr, 6 dogs
  concentration at 4 h: 0.4 ng/mL
[1]; 1 mg/kg, Plasma methadone concentration, individual dogs, methadone alone 1 mg/kg PO, 0 hr, Dog 1-6
  concentration at 0 h: < 0.5 ng/mL
[1]; 1 mg/kg, Plasma methadone concentration, individual dogs, methadone alone 1 mg/kg PO, 1 hr, Dog 1-6
  concentration at 1 h: 1 ng/mL
[1]; 1 mg/kg, Plasma methadone concentration, individual dogs, methadone alone 1 mg/kg PO, 4 hr, Dog 1-6
  concentration at 4 h: < 0.5 ng/mL
[1]; 1 mg/kg, Plasma methadone concentration, individual dogs, methadone alone 1 mg/kg PO, 6 hr, Dog 1-6
  concentration at 6 h: < 0.5 ng/mL
[1]; 1 mg/kg, Plasma methadone concentration, individual dogs, methadone alone 1 mg/kg PO, 8 hr, Dog 1-6
  concentration at 8 h: < 0.5 ng/mL
[1]; 1 mg/kg, Plasma methadone concentration, individual dogs, methadone alone 1 mg/kg PO, 12 hr, Dog 1-6
  concentration at 12 h: < 0.5 ng/mL
[1]; 1 mg/kg, Plasma methadone concentration, individual dogs, methadone alone 1 mg/kg PO, 24 hr, Dog 1-6
  concentration at 24 h: < 0.5 ng/mL
[1]; Mean plasma methadone concentration, methadone 1 mg/kg PO 24 h after starting fluconazole 2.5 mg/kg PO q 12 h, 0 hr
  concentration at 0 h: 0 ng/mL
[1]; Mean plasma methadone concentration, methadone 1 mg/kg PO 24 h after starting fluconazole 2.5 mg/kg PO q 12 h, 0.333 hr
  concentration at 0.333 h: 0.8 ng/mL
[1]; Mean plasma methadone concentration, methadone 1 mg/kg PO 24 h after starting fluconazole 2.5 mg/kg PO q 12 h, 0.667 hr
  concentration at 0.667 h: 5.2 ng/mL
[1]; Mean plasma methadone concentration, methadone 1 mg/kg PO 24 h after starting fluconazole 2.5 mg/kg PO q 12 h, 1 hr
  concentration at 1 h: 16 ng/mL
[1]; Mean plasma methadone concentration, methadone 1 mg/kg PO 24 h after starting fluconazole 2.5 mg/kg PO q 12 h, 2 hr
  concentration at 2 h: 28.4 ng/mL
[1]; Mean plasma methadone concentration, methadone 1 mg/kg PO 24 h after starting fluconazole 2.5 mg/kg PO q 12 h, 4 hr
  concentration at 4 h: 23.3 ng/mL
[1]; Mean plasma methadone concentration, methadone 1 mg/kg PO 24 h after starting fluconazole 2.5 mg/kg PO q 12 h, 6 hr
  concentration at 6 h: 19.2 ng/mL
[1]; Mean plasma methadone concentration, methadone 1 mg/kg PO 24 h after starting fluconazole 2.5 mg/kg PO q 12 h, 8 hr
  concentration at 8 h: 15.9 ng/mL
[1]; Mean plasma methadone concentration, methadone 1 mg/kg PO 24 h after starting fluconazole 2.5 mg/kg PO q 12 h, 12 hr
  concentration at 12 h: 11.6 ng/mL
[1]; Mean plasma methadone concentration, methadone 1 mg/kg PO 24 h after starting fluconazole 2.5 mg/kg PO q 12 h, 24 hr
  concentration at 24 h: 5.6 ng/mL
[1]; Mean plasma methadone concentration, methadone 1 mg/kg PO 24 h after starting fluconazole 5 mg/kg PO q 12 h, 0 hr
  concentration at 0 h: 0 ng/mL
[1]; Mean plasma methadone concentration, methadone 1 mg/kg PO 24 h after starting fluconazole 5 mg/kg PO q 12 h, 0.333 hr
  concentration at 0.333 h: 14 ng/mL
[1]; Mean plasma methadone concentration, methadone 1 mg/kg PO 24 h after starting fluconazole 5 mg/kg PO q 12 h, 0.667 hr
  concentration at 0.667 h: 10.3 ng/mL
[1]; Mean plasma methadone concentration, methadone 1 mg/kg PO 24 h after starting fluconazole 5 mg/kg PO q 12 h, 1 hr
  concentration at 1 h: 24.3 ng/mL
[1]; Mean plasma methadone concentration, methadone 1 mg/kg PO 24 h after starting fluconazole 5 mg/kg PO q 12 h, 2 hr
  concentration at 2 h: 43.6 ng/mL
[1]; Mean plasma methadone concentration, methadone 1 mg/kg PO 24 h after starting fluconazole 5 mg/kg PO q 12 h, 4 hr
  concentration at 4 h: 42.5 ng/mL
[1]; Mean plasma methadone concentration, methadone 1 mg/kg PO 24 h after starting fluconazole 5 mg/kg PO q 12 h, 6 hr
  concentration at 6 h: 33.9 ng/mL
[1]; Mean plasma methadone concentration, methadone 1 mg/kg PO 24 h after starting fluconazole 5 mg/kg PO q 12 h, 8 hr
  concentration at 8 h: 27.6 ng/mL
[1]; Mean plasma methadone concentration, methadone 1 mg/kg PO 24 h after starting fluconazole 5 mg/kg PO q 12 h, 12 hr
  concentration at 12 h: 20.2 ng/mL
[1]; Mean plasma methadone concentration, methadone 1 mg/kg PO 24 h after starting fluconazole 5 mg/kg PO q 12 h, 24 hr
  concentration at 24 h: 8.3 ng/mL
[1]; Mean plasma methadone concentration, methadone 1 mg/kg PO 24 h after starting fluconazole 5 mg/kg PO q 24 h, 0 hr
  concentration at 0 h: 0 ng/mL
[1]; Mean plasma methadone concentration, methadone 1 mg/kg PO 24 h after starting fluconazole 5 mg/kg PO q 24 h, 0.333 hr
  concentration at 0.333 h: 5.8 ng/mL
[1]; Mean plasma methadone concentration, methadone 1 mg/kg PO 24 h after starting fluconazole 5 mg/kg PO q 24 h, 0.667 hr
  concentration at 0.667 h: 22.4 ng/mL
[1]; Mean plasma methadone concentration, methadone 1 mg/kg PO 24 h after starting fluconazole 5 mg/kg PO q 24 h, 1 hr
  concentration at 1 h: 33.7 ng/mL
[1]; Mean plasma methadone concentration, methadone 1 mg/kg PO 24 h after starting fluconazole 5 mg/kg PO q 24 h, 2 hr
  concentration at 2 h: 39.9 ng/mL
[1]; Mean plasma methadone concentration, methadone 1 mg/kg PO 24 h after starting fluconazole 5 mg/kg PO q 24 h, 4 hr
  concentration at 4 h: 31.4 ng/mL
[1]; Mean plasma methadone concentration, methadone 1 mg/kg PO 24 h after starting fluconazole 5 mg/kg PO q 24 h, 6 hr
  concentration at 6 h: 24 ng/mL
[1]; Mean plasma methadone concentration, methadone 1 mg/kg PO 24 h after starting fluconazole 5 mg/kg PO q 24 h, 8 hr
  concentration at 8 h: 18.4 ng/mL
[1]; Mean plasma methadone concentration, methadone 1 mg/kg PO 24 h after starting fluconazole 5 mg/kg PO q 24 h, 12 hr
  concentration at 12 h: 15.3 ng/mL
[1]; Mean plasma methadone concentration, methadone 1 mg/kg PO 24 h after starting fluconazole 5 mg/kg PO q 24 h, 24 hr
  concentration at 24 h: 5.5 ng/mL
[1]; methadone alone 1 mg/kg PO
  Plasma methadone concentration (not exceeded in any of 6 dogs): ≤ 2 ng/mL
[1]; methadone alone 1 mg/kg PO, 0 hr, Dog 1-6
  Plasma methadone concentration, individual dogs: <0.5 ng/mL
[1]; methadone alone 1 mg/kg PO, 0.333 hr, Dog 1-6
  Plasma methadone concentration, individual dogs: <0.5 ng/mL (3×) and 1.3 ng/mL (2×) and 1.9 ng/mL
[1]; methadone alone 1 mg/kg PO, 0.667 hr, Dog 1-6
  Plasma methadone concentration, individual dogs: 1.9 ng/mL and 1.2 ng/mL and 0.7 ng/mL and 1.3 ng/mL and 1.5 ng/mL and 1.0 ng/mL
[1]; methadone alone 1 mg/kg PO, 1 hr, Dog 1-6
  Plasma methadone concentration, individual dogs: 1.2 ng/mL (2×) and 1.5 ng/mL and 1.4 ng/mL and 1.1 ng/mL
[1]; methadone alone 1 mg/kg PO, 2 hr, Dog 1-6
  Plasma methadone concentration, individual dogs: <0.5 ng/mL (2×) and 0.8 ng/mL and 1.3 ng/mL and 0.6 ng/mL and 0.9 ng/mL
[1]; methadone alone 1 mg/kg PO, 4 hr, Dog 1-6
  Plasma methadone concentration, individual dogs: <0.5 ng/mL (2×) and 1.0 ng/mL and 0.5 ng/mL and 0.7 ng/mL
[1]; methadone alone 1 mg/kg PO, 6 hr, Dog 1-6
  Plasma methadone concentration, individual dogs: <0.5 ng/mL
[1]; methadone alone 1 mg/kg PO, 8 hr, Dog 1-6
  Plasma methadone concentration, individual dogs: <0.5 ng/mL
[1]; methadone alone 1 mg/kg PO, 12 hr, Dog 1-6
  Plasma methadone concentration, individual dogs: <0.5 ng/mL
[1]; methadone alone 1 mg/kg PO, 24 hr, Dog 1-6
  Plasma methadone concentration, individual dogs: <0.5 ng/mL
[2]
  Mean plasma concentration of methadone: exceeded 10 ng/mL
[3]
  IV Catheter placement: A. Unable to restrain the dog (number of dogs): 0
  IV Catheter placement: B. The dog was restrained, but was difficult (number of dogs): 2
  IV Catheter placement: C. The dog was restrained with little effort (number of dogs): 8
  IV Catheter placement: D. The dog was unable to sit sternal and had to be supported (number of dogs): 3
